Reference: paper PMC3255464 (2011)

Target: galectin-3 carbohydrate recognition domain (Gal3C) (Homo sapiens, UniProt P17931)
Assay: X-ray crystal structure at […] Å
Assay type: binding

galectin-3 carbohydrate recognition domain (Gal3C), sequence (P17931 113-250): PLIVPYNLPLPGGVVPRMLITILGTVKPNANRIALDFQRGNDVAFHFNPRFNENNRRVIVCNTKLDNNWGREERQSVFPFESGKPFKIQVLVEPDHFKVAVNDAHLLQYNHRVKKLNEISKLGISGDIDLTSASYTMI

Kd: > 100 mM
SMILES: OCC(O)CO [glycerol]
